PMC10973839, “CHF6297: a novel potent and selective p38 MAPK inhibitor with robust anti-inflammatory activity and suitable for inhaled pulmonary administration as dry powder” (Frontiers in Pharmacology, 2024)

Columns and labels:
rat PBMCs = assay: TNF-α release in LPS-stimulated PBMCs; assay type: cell-based; conditions: PBMC, LPS 10 ng/mL, 18 h
Procedure: Peripheral blood mononuclear cells (PBMCs) were isolated from the blood of healthy human volunteers and Wistar rats (250–350 gr; Charles River, Calco, Italy) using a standard density gradient centrifugation technique. The citrated blood was placed onto Histopaque^TM and centrifuged. The PBMCs were then removed from the density gradient interface and washed in phosphate-buffered saline (PBS). The PBMCs were suspended in RPMI 1640 medium (without serum), aliquoted into a 96-well plate, and incubated at 37°C for 3 h in a humidified incubator. After incubation, the medium was replaced (with a medium containing 1% fetal bovine serum), and the plate was incubated at 37°C, for 1 h, in the presence of a test compound or the appropriate vehicle. LPS (10 ng/mL), or an appropriate vehicle control, was then added to the cells, and the plate was returned to the incubator for 18 h. Cell-free supernatants were removed and assayed for TNF-α levels using MSD plates on the SECTOR Imager 6000 (Meso Scale).

[1] = test system: i.v. LPS-induced TNF-α in blood; assay: Intravenous LPS-induced TNF-α release in rat blood; assay type: in vivo, rats; conditions: oral gavage, i.v. LPS
HBSMCs = assay: CSE-evoked IL-8 release in human bronchial smooth muscle cells; assay type: cell-based
Procedure: Cigarette smoke extract (CSE) was generated as reported previously ([Moretto et al., 2012]). Briefly, aqueous CSE was obtained from the combustion of four cigarettes (Marlboro Red, 12 mg tar, 0.9 mg nicotine each) bubbled through 50 mL of the culture medium and subsequently filtered through a 0.2-μm-pore filter (Millipore, Billerica, MA). To ensure reproducibility among different CSE batches, the absorbance [optical density (OD)] measured at 320 nm was used as a measure of the “strength” of the extract. Dilutions were made with culture media to obtain the desired absorbance. The CSE was freshly prepared on the day of the experiment and immediately used after preparation. Human bronchial smooth muscle cells (HBSMCs) were seeded in DMEM with 10% FBS (50 U/mL penicillin, 0.05 mg/mL streptomycin, and 2 mM L-glutamine) in 48-well plates at a density of 10,000 cells/well, grown to ∼80%–90% confluence and incubated overnight in serum-free DMEM before treatments. All the treatments were performed in serum-free DMEM. The cells were pretreated for 30 min with either the vehicle or CHF6297 or losmapimod before stimulation with freshly prepared CSE, TNF-α, (1 ng/mL), or the vehicle for 18 h at 37°C. Human IL-8 was measured in the collected supernatants by use of a paired-antibody quantitative ELISA kit (BioSource International, Camarillo, CA).

[2] = test system: TS-induced neutrophil influx in BALF; assay: BALF neutrophilia induced by tobacco smoke exposure in mice; assay type: in vivo, C57BL6J female mice; conditions: 0.3 mg/kg i.n., 4 days TS exposure
Procedure: C57BL6J female mice aged 9–10 weeks (Harlan Laboratories S.r.l) in groups of 8 were exposed, via whole-body inhalation, twice daily 1 h apart, for 4 consecutive days, to the tobacco smoke (TS) (generated using “Marlboro Gold: 9 mg of tar and 0.7 mg nicotine”) of two cigarettes/exposure on days 1 and 2, three cigarettes/exposure on day 3, and four cigarettes/exposure on the last exposure day in clear polycarbonate chambers (27 cm × 16 cm × 12 cm). The smoke was introduced into the exposure chambers (21100-790 Ugo Basile, Biological Research Instruments, Comerio, Varese, Italy), with the airflow generated by using a mechanical ventilator (7025 Rodent Ventilator, Ugo Basile). Each exposure chamber was connected to a different ventilator set at a rate of 100 mL/min (frequency: 50 strokes/min; volume: 2 mL/stroke). At regular intervals (after burning two cigarettes), the exposure chambers were opened and aired. Sham and control mice were exposed to air only in the same manner for the same duration of time.
CHF6297 (0.03 and 0.3 mg/kg) and budesonide (0.3 mg/kg), our reference compound and vehicle (0.2% Tween 80 in saline), respectively, were administered intranasally in a volume of 30 µL, 1 h before and 5 h after TS exposure under light isoflurane anesthesia.
A BAL was performed using a volume of 0.6 mL of phosphate-buffered saline that was gently instilled and withdrawn three times using a 12-mL syringe. BALF cells were separated by centrifugation (10 min at 3,070 g), and the supernatant was removed. The resulting cell pellet was resuspended in a known volume of PBS, and the total cell numbers were calculated by counting a stained (Turk’s stain) aliquot under a microscope using a hemacytometer. The cell pellet was resuspended to approximately 10^5 cells per ml, and cytospin slides were prepared by centrifugation (8 min at 72.26 g; Shandon Cytospin; Thermo Shandon Ltd., Runcorn, Cheshire, United Kingdom). The slides were air-dried and stained using Wright–Giemsa stain, following the manufacturer’s instructions. A differential cell count was performed using light microscopy. Approximately 400 cells were counted from each slide. The cells were identified using standard morphometric techniques.

[3] = test system: IAV-induced airway neutrophilia in HDM-challenged mice; assay: Influenza virus A (H3N2)-induced exacerbation in HDM-sensitized mice; assay type: in vivo, Balb/c mice; conditions: 100 μg/kg twice daily for 3 days

Cc1c(F)cc(C(=O)NC2CC2)cc1-c1ccc(C(=O)NCC(C)(C)C)cn1 [losmapimod, reference compound]
IC50 (rat PBMCs): 11.9 nM
effect on TNF-α levels in blood [1]: marked reduction in TNF-α levels
maximum inhibition of IL-8 (HBSMCs; CSE-evoked): 100%
IC50 (HBSMCs; Homo sapiens, 18 h): 9.13 nM

CCCC1O[C@@H]2C[C@H]3[C@@H]4CCC5=CC(=O)C=C[C@]5(C)[C@H]4[C@@H](O)C[C@]3(C)[C@]2(C(=O)CO)O1 (stereo partly drawn) [budesonide, reference compound]
neutrophils in BALF [2]: 0.5 ± 0.1 × 10^5 cells/mL
neutrophils in BAL fluid [3]: 2.08 ± 0.23 × 10^5 cells/mL
